{"source": "patent US20190290478A1", "about": "“MEDICINAL HERBAL COMPOSITION FOR EYE APPLICATION” (priority 2018, published 2019)", "origin": "cited, not measured here", "key": {"murine dry eye": {"tested_on": "murine dry eye", "details": "10 mM betaine compared with placebo on the 14, 21, 35 days"}, "[1]": {"tested_on": "HCECs exposed to hyperosmotic stress"}}, "data": [{"smiles": "C[N+](C)(C)CC(=O)O", "note": "[betaine]", "values": [{"measurement": "dry eye's symptom", "setting": "murine dry eye", "result": "significantly reduced"}, {"measurement": "inflammatory response via TRPV1 pathway", "setting": "[1]", "result": "suppress inflammatory response"}]}]}
